Source: patent publication US20240082221A1, “COMPOSITIONS AND METHODS FOR THE IDENTIFICATION OF COMPOUNDS THAT PROTECT AGAINST LIPOFUSCIN CYTOTOXICITY” (priority 2021, published 2024)
Entries after “also recorded” stand apart in the source; their conditions may differ.

Columns and labels:
ARPE-19 cells [1] = tested on: ARPE-19 cells
Experimental: Cell Viability Assay. […] 1× AlamarBlue solution prepared in OptiMEM was used to replace the media supernatant and the plate's fluorescence was determined at 555 nm excitation/585 nm emission with a SpectraMax M (Molecular Devices, CA, USA), after 1 h. […] The exact timing of appearance of far-red (DRAQ7=plasma membrane leakage) and blue (NUC405=caspase 3 activation) fluorescence signals was critical to differentiate apoptosis and necrosis from secondary events, such as membrane damage and generalized proteolytic activation during the late phase of apoptosis and necrosis, respectively.
Real time monitoring of necrotic and apoptotic cell-death. Cell-death assay to study Lipofuscin's dark toxicity was performed. 90% confluent ARPE-19 or hfRPE were incubated overnight in serum free media supplemented with indicated LB concentration. Viability was assessed at 24 hrs by AlamarBlue®, or microscopy with NUC405/DRAQ7. Real time monitoring of necrotic (red) and apoptotic (blue) cell-death was performed by automated fluorescence microscopy. The exact timing of appearance of far-red (DRAQ7=plasma membrane leakage) and blue (NUC405=caspase 3 activation) fluorescence signals was critical to differentiate apoptosis and necrosis from secondary events, such as membrane damage and generalized proteolytic activation during the late phase of apoptosis and necrosis, respectively.
Chemical inhibitors. Chemical inhibitors used in this study are described in FIG. 12.

human MLKL = test: Western blot of Ser358 phospho-MLKL, phosphorylation and polymerization of MLKL; format: cell-based; settings: absence of light
Experimental: (§1) Immunoblotting. Total cell lysates were extracted using RIPA lysis buffer (50 mM TrisHCl, Ph 8.0, 150 mM NaCl, 1% NP40, 0.5% Sodium Deoxycholate, 0.1% SDS, protease-phosphatase inhibitor) after the incubation of the specific sample group in a 48 well plate. Sonication or syringing (20 times) was done followed by centrifugation at 12,000×g for 10 mins and the supernatant was collected and stored in −80° C. Proten concentration from homogenates were assessed by Pierce Rapid Gold BCA protein assay kit (ThermoFisher Scientific, cat.no. A53225). Then 30 μg of protein was analyzed by standard SDS-PAGE gel. Samples were mixed 4:1 (v:v) with Nupage loading buffer with or without 8% 0-mercaptoethanol and heated for 10 min at 72° C. SDS-PAGE was done using 4-12% Nupage gel and buffer (Life, NP0335BOX). Next, SDS-PAGE gel was transferred to nitrocellulose membrane (Whatman, PROTAN BA83) overnight at 20V. The following day, 5% milk in TBS was used for 2 h blocking the membrane and then primary antibody was added in TBST (TBS, 0.1% Tween-20) for overnight at 4° C. Next day membranes were washed and incubated for 2 hours at room temperature with HRP conjugated secondary antibody (cat #G21234, Invitrogen) at 1:10,000 dilution. After 3 more washed membranes were probed with enhanced chemiluminescence (ECL) reagent and detected using an X-ray films for chemiluminescence image (GE healthcare, RPN2106). Scanning/imaging and quantitation of the image was done using silverfast 8 application software and Fiji Image J. Antibodies for Western blotting were list in FIG. 10.
For its phosphorylation, MLKL and its kinase need to be recruited into multiprotein complexes, known as necrosomes (FIG. 4O). Necrosomes are not well conserved among species and vary also with the nature of the stimuli that triggers their formation. […] Considering that phosphorylation of human MLKL at Ser358 (pMLKL), is a hallmark triggering event and marker of necroptosis, the Ser358-phosphorylation and polymerization status of MLKL in cells with LF was determined. […] A prerequisite for the assembly of these RIP kinases into necrosomes was their phosphorylation.

IRE1α [2] = test: qPCR of spliced XBP1 (XBP1s) as readout of IRE1α activity in ARPE-19; format: cell-based, Human
Text: RNA isolation and quantitative PCR. Total RNA was extracted from cultured cells or mouse eye RPE layer using the RNeasy Mini kit (QIAGEN). The total RNA was digested with deoxyribonuclease I to prevent amplification of genomic DNA. The total RNA then was reversed transcribed using High-Capacity cDNA Reverse Transcription Kit (ThermoFisher Scientific, cat.no. 4368814) and analyzed gene expression using SYBR Green Master Mix (ThermoFisher Scientific, cat.no. 4472908) in an Applied Biosystems StepOne real time PCR machine. GAPDH was used as a reference gene. […] After genes were amplified by real time PCR, some of the PCR products were separated by 2.5% agarose gel.

cathepsin D = format: cell-based
Text: (§2) Next, A2E buildups were imaged using a combination of DIC and fluorescence: A2E appeared as granules with well-defined edges, both within cells or after drying over a coverslip (FIGS. 14D and 14E). Next, the ability of the suspected A2E crystals to damage lysosomal membranes was investigated. A recently developed galectin-3 puncta assay for early detection of lysosomal membrane permeabilization (LMP) was used. Briefly, cytosolic galectin-3 rapidly binds to the glycocalyx in the luminal face of lysosomal membranes as they become leaky, which is easily detectable with anti-galectin high-affinity antibodies. L-Leucyl-L-Leucine methyl ester (LLO) a lysosomotropic peptide that causes LMP was used as positive control of puncta formation (FIG. 14E). […] LMP was confirmed by showing the […] of cathepsin D, as surrogate of lysosomal enzymes. […] Also, very remarkable was the observation that the same unique pattern of protection with arimoclomol and Nec-7 but not Nec-1 was observable for LLO (FIG. 14K), consistent with the idea that necroptosis by A2E is being caused by LMP.

lysosomal membranes = format: cell-based
Text: as §2

[3] = Detection of lipid bisretinoids aggregation by filter passage; format: physicochemical
Text: Detection of lipid bisretinoids aggregation.

[4] = tested on: UPR (PERK and ATF6 branches); test: Western blot of ER-stress markers (p-eIF2a, ATF4, BiP, ATF6) without illumination; format: cell-based, Human
Experimental: as §1
The causal link between LF accumulation and ER-stress without light assistance was analyzed (FIG. 6A). […] The activation of the IRE1α branch was visualized by qPCR.

Oxidative damage by H2O2 = format: cell-based
IRE1α [5] = test: Western blot of light-independent phosphorylation of IRE1α induced by LF; format: cell-based
Experimental: as §1, with “The following day, 5% milk in TBS was used for 2 h blocking the membrane and then primary antibody was added in TBST (TBS, 0.1% Tween-20) for overnight at 4° C. Next day membranes were washed and incubated for 2 hours at room temperature with HRP conjugated secondary antibody (cat #G21234, Invitrogen) at 1:10,000 dilution.” left out

pMLKL = test: Fluorescence microscopy of pMLKL plasma membrane translocation in ARPE-19 monolayers; format: cell-based, Human; settings: ARPE-19 with A2E or ATRD
Text: Chronic accumulation of polymeric pMLKL could account for progressive damage in pigmented retinas as they amass LF.

ARPE-19 cells [6] = test: Blue-light phototoxicity of A2E-loaded cells, AlamarBlue; format: cell-based, Human; settings: A2E 5 μM O/N, blue light 10 min, viability after 24 hrs
Experimental: FIG. 18A: ARPE19 cells were pretreated for 1 hr with the […] of: eIF2a (Salubrinal (SAL), SAL003, or Guanabenz); eIF4 (Briciclib or eFT508); mTOR (Rapamycin, Torin-1); or the unspecific protein translation inhibitor (Cyclohexamide CHX) and then incubated with lethal doses of A2E (25 μM) for an additional 24 hrs in the presence of these drugs. Viability was assessed with AlamarBlue®. […] Viability was assessed with AlamarBlue®. […] ARPE-19 cells were incubated O/N with a non-toxic amount of A2E (5 μM) to allow its incorporation into lysosomes and after changing the media for PBS and irradiating for 10 min with blue light cells were maintained for an additional 24 hrs in Optimem before evaluating viability, using AlamarBlue®. FIG. 18D: Fluorescence microscopy of cells incubated with lethal amounts of A2E (25 μM) in Optimem for 24 hrs. Green fluorescence corresponds to A2E deposits. Nuclei are stained with the DNA dye, Hoechst, in viable cells (blue) and with Hoechst and DRAQ7 (a DNA dye that only enter cells with disrupted membranes) in dead cells (purple).
Blue light treatment. ARPE19 cells were grown at 70% confluence and were treated with or without 20 μM A2E in culture medium for 24 h. Then, HBSS replaced the cell culture medium before blue light treatment. ARPE19 cells with or without A2E intake, were illuminated by 460+20 nm wavelength light for 20 min.

## CC(C=CC1=C(C)CCCC1(C)C)=CC=CC(C)=Cc1cc(C=CC=C(C)C=CC2=C(C)CCCC2(C)C)cc[n+]1CCO [A2E, N-retinylidene-N-retinylethanolamine]
ARPE-19 cells [1]; light-independent
  cell death in ARPE19 cells exposed to the substance: Dose dependent cell death
Human MLKL
  induction of phosphorylation and polymerization of MLKL: dose-dependent phosphorylation and polymerization of MLKL
IRE1α [2]; in the dark, qPCR
  induction of XBP1s: dose and time-dependent inductions of XBP1s
Cathepsin D
  cathepsin-D activity: caused reduction in cathepsin-D activity
Lysosomal membranes
  lysosomal membrane permeabilization (galectin-3 puncta): clearly caused puncta staining and therefore LMP
[3]; 3 μm cut-off, same material
  passage through 3 μm filter in aqueous milieu: did cross membranes with 3 μm cut-off
[3]; 450 nm filter pores
  passage through 0.45 μm filter in aqueous milieu: could not move across 450 nm filter pores
[4]; 6 hrs treatment, 20 μM A2E
  cleavage of ATF6: significant cleavage
[4]; without light
  Ser51 phosphorylation of eIF2a: strongest Ser51 phosphorylation of eIF2a

## CC(=O)N[C@@H](CS)C(=O)O [NAC, N-acetyl cysteine]
Oxidative damage by H2O2
  prevention of oxidative damage by H2O2: effectively prevented oxidative damage by H2O2
IRE1α [5]
  light-independent phosphorylation of IRE1α induced by LF in presence of antioxidant: proceeded unaffected

## O=C(/C=C/c1ccccc1)NC(NC(=S)Nc1cccc2cccnc12)C(Cl)(Cl)Cl (stereo not shown) [Salubrinal]
ARPE-19 cells [1]; ARPE19 pretreated 1 hr, then A2E 25 μM for 24 hrs in presence of drug, AlamarBlue
  protection against lethal doses of A2E, viability: protected against lipofuscin
ARPE-19 cells [1]; with PERK inhibitor GSK2606414 or ATF4-shRNA, A2E 25 μM 24 hrs
  requirement of PERK / ATF4 for protection against lipofuscin: needs PERK but not ATF4 to exert protection against lipofuscin
pMLKL
  effect on LF-induced pMLKL plasma membrane localization: abrogated
IRE1α [2]; ARPE-19, qPCR, listed as SAL
  effect on LF-induced XBP1 splicing (XBP1s, IRE1α activity): inhibits IRE1α signaling; also recorded: abrogated
ARPE-19 cells [6]
  protection against phototoxic decomposition of lipid bisretinoids: does not protect against the phototoxic decomposition of lipid bisretinoids
